What follows are molecules tested on Canis familiaris (assay: Diuretic activity in dog assessed as chloride level in urine per min at 5 mg/kg, iv relative to control). Conditions: not given.
Assay type: functional, Canis lupus familiaris

Compound	Activity [µEq/min]
CC1(c2ccccc2)Cc2cc(OCc3nnn[nH]3)c(Cl)c(Cl)c2C1=O (centres undefined)	245
O=C(O)COc1cc2c(c(Cl)c1Cl)C(=O)C1(c3ccccc3)CCCCC21 (centres undefined)	211
CC1(c2cccs2)Cc2cc(OCC(=O)O)c(Cl)c(Cl)c2C1=O (centres undefined)	598
NS(=O)(=O)c1cc2c(cc1Cl)NCNS2(=O)=O [HYDROCHLOROTHIAZIDE]	156
CC1(c2ccc(CN)cc2)Cc2cc(OCC(=O)[O-])c(Cl)c(Cl)c2C1=O.[Na+] (centres undefined)	424

Same assay, conditions: 5 mg/kg

Compound	Activity [µEq/min]
CC1(c2ccccc2)Cc2cc(OCC(=O)O)c(Cl)c(Cl)c2C1=O (single isomer, unassigned; (+)) [INDACRINONE]	304
CC1(c2ccccc2)Cc2cc(OCC(=O)O)c(Cl)c(Cl)c2C1=O (single isomer, unassigned; (-)) [INDACRINONE]	360
CC1(c2ccccc2)Cc2cc(OCC(=O)O)c(Cl)c(Cl)c2C1=O (racemic) [INDACRINONE]	1010

These molecules were tested on Rattus norvegicus (assay: Natriuretic activity in rat assessed as per cage at 9 mg/kg, po). Conditions: not given.
Assay type: functional

Compound	Activity [mEq]
CC(=O)c1ccc(C2(C)Cc3cc(OCC(=O)O)c(Cl)c(Cl)c3C2=O)cc1 (centres undefined)	0.62
CC1(c2ccc(S(N)(=O)=O)cc2)Cc2cc(OCC(=O)O)c(Cl)c(Cl)c2C1=O (centres undefined)	0.29
CC1(c2ccccc2)Cc2cc(OCc3nnn[nH]3)c(Cl)c(Cl)c2C1=O (centres undefined)	0.17
O=C(O)COc1cc2c(c(Cl)c1Cl)C(=O)C1(c3ccccc3)CCCCC21 (centres undefined)	0.65
CC1(c2cccs2)Cc2cc(OCC(=O)O)c(Cl)c(Cl)c2C1=O (centres undefined)	0.79
COc1ccc(C2(C)Cc3cc(OCC(=O)O)c(Cl)c(Cl)c3C2=O)cc1 (centres undefined)	0.76
NS(=O)(=O)c1cc2c(cc1Cl)NCNS2(=O)=O [HYDROCHLOROTHIAZIDE]	1.12
CC1(c2ccc(CN)cc2)Cc2cc(OCC(=O)[O-])c(Cl)c(Cl)c2C1=O.[Na+] (centres undefined)	0.17

Same assay, conditions: 9 mg/kg

Compound	Activity [mEq]
CC1(c2ccccc2)Cc2cc(OCC(=O)O)c(Cl)c(Cl)c2C1=O (single isomer, unassigned; (+)) [INDACRINONE]	0.38
CC1(c2ccccc2)Cc2cc(OCC(=O)O)c(Cl)c(Cl)c2C1=O (single isomer, unassigned; (-)) [INDACRINONE]	1.21
CC1(c2ccccc2)Cc2cc(OCC(=O)O)c(Cl)c(Cl)c2C1=O (racemic) [INDACRINONE]	0.97

What follows are molecules tested on Rattus norvegicus (assay: Natriuretic activity in rat assessed as per cage at 27 mg/kg, po). Conditions: not given.
Assay type: functional

Compound	Activity [mEq]
CC(=O)c1ccc(C2(C)Cc3cc(OCC(=O)O)c(Cl)c(Cl)c3C2=O)cc1 (centres undefined)	0.81
CC1(c2ccc(S(N)(=O)=O)cc2)Cc2cc(OCC(=O)O)c(Cl)c(Cl)c2C1=O (centres undefined)	0.86
CC1(c2ccccc2)Cc2cc(OCc3nnn[nH]3)c(Cl)c(Cl)c2C1=O (centres undefined)	0.2
O=C(O)COc1cc2c(c(Cl)c1Cl)C(=O)C1(c3ccccc3)CCCCC21 (centres undefined)	0.86
CC1(c2cccs2)Cc2cc(OCC(=O)O)c(Cl)c(Cl)c2C1=O (centres undefined)	1.41
COc1ccc(C2(C)Cc3cc(OCC(=O)O)c(Cl)c(Cl)c3C2=O)cc1 (centres undefined)	1.29
CC1(c2ccc(CN)cc2)Cc2cc(OCC(=O)[O-])c(Cl)c(Cl)c2C1=O.[Na+] (centres undefined)	0.27

Same assay, conditions: 27 mg/kg

Compound	Activity [mEq]
CC1(c2ccccc2)Cc2cc(OCC(=O)O)c(Cl)c(Cl)c2C1=O (single isomer, unassigned; (+)) [INDACRINONE]	0.71
CC1(c2ccccc2)Cc2cc(OCC(=O)O)c(Cl)c(Cl)c2C1=O (single isomer, unassigned; (-)) [INDACRINONE]	1.79
CC1(c2ccccc2)Cc2cc(OCC(=O)O)c(Cl)c(Cl)c2C1=O (racemic) [INDACRINONE]	1.29

The molecules below were run on Rattus norvegicus (assay: Natriuretic activity in rat assessed as per cage at 3 mg/kg, po). Conditions: not given.
Assay type: functional

Compound	Activity [mEq]
CC(=O)c1ccc(C2(C)Cc3cc(OCC(=O)O)c(Cl)c(Cl)c3C2=O)cc1 (centres undefined)	0.49
CC1(c2ccc(S(N)(=O)=O)cc2)Cc2cc(OCC(=O)O)c(Cl)c(Cl)c2C1=O (centres undefined)	0.32
CC1(c2ccccc2)Cc2cc(OCc3nnn[nH]3)c(Cl)c(Cl)c2C1=O (centres undefined)	0.28
O=C(O)COc1cc2c(c(Cl)c1Cl)C(=O)C1(c3ccccc3)CCCCC21 (centres undefined)	0.47
CC1(c2cccs2)Cc2cc(OCC(=O)O)c(Cl)c(Cl)c2C1=O (centres undefined)	0.46
COc1ccc(C2(C)Cc3cc(OCC(=O)O)c(Cl)c(Cl)c3C2=O)cc1 (centres undefined)	0.45
CC1(c2ccc(CN)cc2)Cc2cc(OCC(=O)[O-])c(Cl)c(Cl)c2C1=O.[Na+] (centres undefined)	0.18

Same assay, conditions: 3 mg/kg

Compound	Activity [mEq]
CC1(c2ccccc2)Cc2cc(OCC(=O)O)c(Cl)c(Cl)c2C1=O (single isomer, unassigned; (+)) [INDACRINONE]	0.77
CC1(c2ccccc2)Cc2cc(OCC(=O)O)c(Cl)c(Cl)c2C1=O (single isomer, unassigned; (-)) [INDACRINONE]	1.01
CC1(c2ccccc2)Cc2cc(OCC(=O)O)c(Cl)c(Cl)c2C1=O (racemic) [INDACRINONE]	0.86

What follows are molecules tested on Rattus norvegicus (assay: Natriuretic activity in rat assessed as per cage at 81 mg/kg, po). Conditions: not given.
Assay type: functional

Compound	Activity [mEq]
CC(=O)c1ccc(C2(C)Cc3cc(OCC(=O)O)c(Cl)c(Cl)c3C2=O)cc1 (centres undefined)	1.63
CC1(c2ccccc2)Cc2cc(OCc3nnn[nH]3)c(Cl)c(Cl)c2C1=O (centres undefined)	0.4
O=C(O)COc1cc2c(c(Cl)c1Cl)C(=O)C1(c3ccccc3)CCCCC21 (centres undefined)	1.17
CC1(c2cccs2)Cc2cc(OCC(=O)O)c(Cl)c(Cl)c2C1=O (centres undefined)	1.77
CC1(c2ccc(CN)cc2)Cc2cc(OCC(=O)[O-])c(Cl)c(Cl)c2C1=O.[Na+] (centres undefined)	0.19

Same assay, conditions: 81 mg/kg

Compound	Activity [mEq]
CC1(c2ccccc2)Cc2cc(OCC(=O)O)c(Cl)c(Cl)c2C1=O (single isomer, unassigned; (+)) [INDACRINONE]	0.88
CC1(c2ccccc2)Cc2cc(OCC(=O)O)c(Cl)c(Cl)c2C1=O (single isomer, unassigned; (-)) [INDACRINONE]	2.71
CC1(c2ccccc2)Cc2cc(OCC(=O)O)c(Cl)c(Cl)c2C1=O (racemic) [INDACRINONE]	1.89

What follows are molecules tested on Canis familiaris (assay: Diuretic activity in dog assessed as sodium level in urine per min at 5 mg/kg, iv relative to control). Conditions: not given.
Assay type: functional, Canis lupus familiaris

Compound	Activity [µEq/min]
CC1(c2ccccc2)Cc2cc(OCc3nnn[nH]3)c(Cl)c(Cl)c2C1=O (centres undefined)	279
O=C(O)COc1cc2c(c(Cl)c1Cl)C(=O)C1(c3ccccc3)CCCCC21 (centres undefined)	276
CC1(c2cccs2)Cc2cc(OCC(=O)O)c(Cl)c(Cl)c2C1=O (centres undefined)	503
NS(=O)(=O)c1cc2c(cc1Cl)NCNS2(=O)=O [HYDROCHLOROTHIAZIDE]	166
CC1(c2ccc(CN)cc2)Cc2cc(OCC(=O)[O-])c(Cl)c(Cl)c2C1=O.[Na+] (centres undefined)	497

Same assay, conditions: 5 mg/kg

Compound	Activity [µEq/min]
CC1(c2ccccc2)Cc2cc(OCC(=O)O)c(Cl)c(Cl)c2C1=O (single isomer, unassigned; (+)) [INDACRINONE]	221
CC1(c2ccccc2)Cc2cc(OCC(=O)O)c(Cl)c(Cl)c2C1=O (single isomer, unassigned; (-)) [INDACRINONE]	314
CC1(c2ccccc2)Cc2cc(OCC(=O)O)c(Cl)c(Cl)c2C1=O (racemic) [INDACRINONE]	920

These molecules were tested on Canis familiaris (assay: Diuretic activity in dog assessed as […] urine volume at 5 mg/kg, iv relative to control). Conditions: not given.
Assay type: functional, Canis lupus familiaris

Compound	Activity [mL]
CC1(c2ccccc2)Cc2cc(OCc3nnn[nH]3)c(Cl)c(Cl)c2C1=O (centres undefined)	3
O=C(O)COc1cc2c(c(Cl)c1Cl)C(=O)C1(c3ccccc3)CCCCC21 (centres undefined)	4
CC1(c2cccs2)Cc2cc(OCC(=O)O)c(Cl)c(Cl)c2C1=O (centres undefined)	5
NS(=O)(=O)c1cc2c(cc1Cl)NCNS2(=O)=O [HYDROCHLOROTHIAZIDE]	3
CC1(c2ccc(CN)cc2)Cc2cc(OCC(=O)[O-])c(Cl)c(Cl)c2C1=O.[Na+] (centres undefined)	5

Same assay, conditions: 5 mg/kg

Compound	Activity [mL]
CC1(c2ccccc2)Cc2cc(OCC(=O)O)c(Cl)c(Cl)c2C1=O (single isomer, unassigned; (+)) [INDACRINONE]	4
CC1(c2ccccc2)Cc2cc(OCC(=O)O)c(Cl)c(Cl)c2C1=O (racemic) [INDACRINONE]	8

These molecules were tested on Pan troglodytes (assay: Natriuretic activity in chimpanzee assessed as change in Curate to Cinsulin ratio at 5 mg/kg, po). Conditions: not given.
Assay type: functional

Compound	Ratio
CC(=O)c1ccc(C2(C)Cc3cc(OCC(=O)O)c(Cl)c(Cl)c3C2=O)cc1 (centres undefined)	0.08
CC1(c2ccc(S(N)(=O)=O)cc2)Cc2cc(OCC(=O)O)c(Cl)c(Cl)c2C1=O (centres undefined)	0
CC1(c2ccccc2)Cc2cc(OCc3nnn[nH]3)c(Cl)c(Cl)c2C1=O (centres undefined)	0.09
O=C(O)COc1cc2c(c(Cl)c1Cl)C(=O)C1(c3ccccc3)CCCCC21 (centres undefined)	0.08
CC1(c2cccs2)Cc2cc(OCC(=O)O)c(Cl)c(Cl)c2C1=O (centres undefined)	0.47
COc1ccc(C2(C)Cc3cc(OCC(=O)O)c(Cl)c(Cl)c3C2=O)cc1 (centres undefined)	0.01
CCCN(CCC)S(=O)(=O)c1ccc(C(=O)O)cc1 [PROBENECID]	0.05
CC1(c2ccc(CN)cc2)Cc2cc(OCC(=O)[O-])c(Cl)c(Cl)c2C1=O.[Na+] (centres undefined)	0

Same assay, conditions: 5 mg/kg

Compound	Ratio
CC1(c2ccccc2)Cc2cc(OCC(=O)O)c(Cl)c(Cl)c2C1=O (single isomer, unassigned; (+)) [INDACRINONE]	0.16
CC1(c2ccccc2)Cc2cc(OCC(=O)O)c(Cl)c(Cl)c2C1=O (single isomer, unassigned; (-)) [INDACRINONE]	0.28
CC1(c2ccccc2)Cc2cc(OCC(=O)O)c(Cl)c(Cl)c2C1=O (racemic) [INDACRINONE]	0.38

These molecules were tested on Pan troglodytes (assay: Natriuretic activity in chimpanzee assessed as per min at 5 mg/kg, po). Conditions: not given.
Assay type: functional

Compound	Activity [uEq]
CC(=O)c1ccc(C2(C)Cc3cc(OCC(=O)O)c(Cl)c(Cl)c3C2=O)cc1 (centres undefined)	608
CC1(c2ccc(S(N)(=O)=O)cc2)Cc2cc(OCC(=O)O)c(Cl)c(Cl)c2C1=O (centres undefined)	674
CC1(c2ccccc2)Cc2cc(OCc3nnn[nH]3)c(Cl)c(Cl)c2C1=O (centres undefined)	44
O=C(O)COc1cc2c(c(Cl)c1Cl)C(=O)C1(c3ccccc3)CCCCC21 (centres undefined)	137
CC1(c2cccs2)Cc2cc(OCC(=O)O)c(Cl)c(Cl)c2C1=O (centres undefined)	416
COc1ccc(C2(C)Cc3cc(OCC(=O)O)c(Cl)c(Cl)c3C2=O)cc1 (centres undefined)	459
NS(=O)(=O)c1cc2c(cc1Cl)NCNS2(=O)=O [HYDROCHLOROTHIAZIDE]	144
CC1(c2ccc(CN)cc2)Cc2cc(OCC(=O)[O-])c(Cl)c(Cl)c2C1=O.[Na+] (centres undefined)	135

Same assay, conditions: 5 mg/kg

Compound	Activity [uEq]
CC1(c2ccccc2)Cc2cc(OCC(=O)O)c(Cl)c(Cl)c2C1=O (single isomer, unassigned; (+)) [INDACRINONE]	221
CC1(c2ccccc2)Cc2cc(OCC(=O)O)c(Cl)c(Cl)c2C1=O (single isomer, unassigned; (-)) [INDACRINONE]	743
CC1(c2ccccc2)Cc2cc(OCC(=O)O)c(Cl)c(Cl)c2C1=O (racemic) [INDACRINONE]	409

— ChEMBL document CHEMBL3243997, “(Acylaryloxy)acetic acid diuretics. 2. (2-Alkyl-2-aryl-1-oxo-5-indanyloxy)acetic acids” (1978)
